Data: patent US11555012B2 (Nimbus Artemis, Inc., priority 2018, dated 2023)

molecular target: ACL (Homo sapiens (Human), UniProt P53396); assay: ADP-Glo Assay
Sequence (P53396 other isoform, or with tags, fused parts or gaps isoform P53396-2): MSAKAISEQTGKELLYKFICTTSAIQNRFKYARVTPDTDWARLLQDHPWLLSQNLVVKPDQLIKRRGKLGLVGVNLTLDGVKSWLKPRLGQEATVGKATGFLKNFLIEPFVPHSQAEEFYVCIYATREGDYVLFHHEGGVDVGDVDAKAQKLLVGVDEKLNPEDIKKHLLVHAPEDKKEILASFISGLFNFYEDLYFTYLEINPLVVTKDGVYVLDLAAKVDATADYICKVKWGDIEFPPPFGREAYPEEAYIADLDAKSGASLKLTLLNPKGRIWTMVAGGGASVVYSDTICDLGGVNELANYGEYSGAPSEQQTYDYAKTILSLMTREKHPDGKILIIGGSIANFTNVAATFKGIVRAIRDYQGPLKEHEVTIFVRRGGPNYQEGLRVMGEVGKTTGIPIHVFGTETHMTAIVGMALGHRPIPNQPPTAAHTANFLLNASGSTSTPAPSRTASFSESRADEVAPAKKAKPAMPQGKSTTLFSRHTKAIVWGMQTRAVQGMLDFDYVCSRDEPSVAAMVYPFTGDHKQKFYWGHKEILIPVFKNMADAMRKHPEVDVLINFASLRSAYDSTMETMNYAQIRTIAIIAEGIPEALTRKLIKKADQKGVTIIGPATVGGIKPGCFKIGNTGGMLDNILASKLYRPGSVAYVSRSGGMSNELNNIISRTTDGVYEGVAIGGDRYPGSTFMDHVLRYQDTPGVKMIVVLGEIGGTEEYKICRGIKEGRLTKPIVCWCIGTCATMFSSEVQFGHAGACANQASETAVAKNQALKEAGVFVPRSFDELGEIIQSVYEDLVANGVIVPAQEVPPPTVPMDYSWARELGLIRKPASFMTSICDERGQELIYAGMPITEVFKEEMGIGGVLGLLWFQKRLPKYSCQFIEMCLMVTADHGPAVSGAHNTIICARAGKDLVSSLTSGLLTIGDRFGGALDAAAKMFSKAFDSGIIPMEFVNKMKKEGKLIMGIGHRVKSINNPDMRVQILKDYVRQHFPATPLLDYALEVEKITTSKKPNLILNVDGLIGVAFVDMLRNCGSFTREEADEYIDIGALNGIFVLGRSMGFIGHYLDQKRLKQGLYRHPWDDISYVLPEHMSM

`Cc1c(CNS(=O)(=O)c2cc(Cl)cc(Cl)c2O)n(C)c2ccccc12` [I-181] and `NC(=O)c1sc2ccccc2c1NS(=O)(=O)c1cc(Cl)cc(Cl)c1O` [I-174] fall in the same range of IC50: 0.5 to 20 µM for the first, 0.5 to 20 µM for the second.

`COc1c(Br)cc(C(=O)N2CCC2)cc1S(=O)(=O)Nc1cc(-c2ccccc2)ccc1F` [I-154, 5-(azetidine-1-carbonyl)-3-bromo-N-(4-fluoro-[1,1′-biphenyl]-3-yl)-2-methoxybenzenesulfonamide] and `O=C(c1c[nH]c(=O)c(S(=O)(=O)Nc2cc(-c3ccccc3)ccc2F)c1)N1CCC1` [I-369, 5-(azetidine-1-carbonyl)-N-(4-fluoro-[1,1′-biphenyl]-3-yl)-2-oxo-1,2-dihydropyridine-3-sulfonamide] fall in the same range of IC50: 0.5 to 20 µM for the first, 0.5 to 20 µM for the second.

`COC(=O)c1cccc(S(=O)(=O)Nc2cc(-c3ccccc3)c(F)cc2F)c1` [I-191, methyl 3-([4,6-difluoro-[1,1-biphenyl]-3-yl]sulfamoyl)benzoate] and `O=S(=O)(Nc1cc(-c2ccccc2)c(F)cc1F)c1cccc(Cl)c1Cl` [I-190, 2,3-dichloro-N-[4,6-difluoro-[1,1-biphenyl]-3-yl]benzene-1-sulfonamide] fall in the same range of IC50: 0.5 to 20 µM for the first, 0.5 to 20 µM for the second.

Compared with `O=C(O)CCc1cc(Cl)c(O)c(S(=O)(=O)Nc2cc(F)cc(F)c2)c1` [I-399, 3-(3-chloro-5-(N-(3,5-difluorophenyl)sulfamoyl)-4-hydroxyphenyl) Propanoic Acid], `O=S(=O)(Nc1cc(F)cc(N2CCOCC2)c1)c1cc(Cl)cc(Cl)c1O` [I-182] is lower in IC50: > 20 µM for the first, 0.5 to 20 µM for the second. The second is the more potent here.

First: COc1ccccc1S(=O)(=O)Nc1cc(-c2ccccc2)ccc1F [I-441, N-[4-fluoro-[1,1-biphenyl]-3-yl]-2-methoxybenzene-1-sulfonamide]
Second: O=S(=O)(Nc1cc(-c2ccccc2)ccc1F)c1ccccc1O [I-35, N-(2-fluoro-5-phenylphenyl)-2-hydroxybenzene-1-sulfonamide]
The IC50 of the first is higher: > 20 µM for the first, 0.5 to 20 µM for the second. The second is the more potent here.

First: COc1ccc(-c2ccccc2)cc1NS(=O)(=O)c1cc(Cl)cc(-c2nn[nH]n2)c1 [I-38, 3-chloro-N-(2-methoxy-5-phenylphenyl)-5-(2H-1,2,3,4-tetrazol-5-yl)benzene-1-sulfonamide]
Second: COc1ccc(-c2ccccc2)cc1NS(=O)(=O)c1cc(Cl)cc(Cl)c1N [I-414, 2-amino-3,5-dichloro-N-(2-methoxy-5-phenylphenyl) benzene-1-sulfonamide]
The IC50 of the first is lower: 0.5 to 20 µM for the first, > 20 µM for the second. The first is the more potent here.

`O=C(O)c1ccc(-c2ccccc2)cc1NCc1cc(Cl)cc(Cl)c1` [I-267, 3-((3,5-dichlorobenzyl)amino)-[1,1′-biphenyl]-4-carboxylic Acid] and `O=C(O)c1ccc(-c2ccccc2)cc1NS(=O)(=O)c1cc(Cl)ccc1Cl` [I-288, 3-((2,5-dichlorophenyl)sulfonamido)-[1,1′-biphenyl]-4-carboxylic acid] fall in the same range of IC50: 0.5 to 20 µM for the first, 0.5 to 20 µM for the second.

`O=C(Nc1cc(-c2ccccc2)ccc1F)c1cc(Cl)cc(Cl)c1O` [I-27, 3,5-dichloro-N-(4-fluoro-[1,1′-biphenyl]-3-yl)-2-hydroxybenzamide] and `COc1ccc(-c2ccccc2)cc1NC(=O)c1cc(Cl)cc(Cl)c1O` [I-18, 3,5-dichloro-2-hydroxy-N-(4-methoxy-[1,1′-biphenyl]-3-yl)benzamide] fall in the same range of IC50: 0.5 to 20 µM for the first, 0.5 to 20 µM for the second.

First: O=C(O)c1ccc(-c2ccccc2)cc1NS(=O)(=O)c1cn[nH]c1 [I-445]
Second: O=C(O)c1ccc(-c2ccccc2)cc1NS(=O)(=O)c1ccc(Cl)c(Cl)c1 [I-284, 3-((3,4-dichlorophenyl)sulfonamido)-[1,1′-biphenyl]-4-carboxylic acid]
The IC50 of the first is higher: > 20 µM for the first, 0.5 to 20 µM for the second.

First: O=C(O)c1ccc(-c2ccccc2)cc1NS(=O)(=O)c1ccc(C(F)(F)F)cc1 [I-353, 3-((4-(trifluoromethyl)phenyl)sulfonamido)-[1,1′-biphenyl]-4-carboxylic acid]
Second: COc1ccc(-c2ccccc2)cc1NS(=O)(=O)c1ccc(C#N)cc1 [I-410, 4-cyano-N-(2-methoxy-5-phenylphenyl)benzene-1-sulfonamide]
The IC50 of the first is lower: 0.5 to 20 µM for the first, > 20 µM for the second.

Compared with `COc1ccc(-c2ccccc2)cc1N(C)S(=O)(=O)c1cc(Cl)cc(Cl)c1O` [I-17, 3,5-dichloro-2-hydroxy-N-(4-methoxy-[1,1′-biphenyl]-3-yl)-N-methylbenzenesulfonamide], `COc1ccc(-c2ccccc2)cc1NS(=O)(=O)c1cc(Cl)cc(Cl)c1C(=O)O` [I-398, 2,4-dichloro-6-(N-(4-methoxy-[1,1′-biphenyl]-3-yl)sulfamoyl) Benzoic Acid] is higher in IC50: 0.5 to 20 µM for the first, > 20 µM for the second.

`O=C(O)COc1ccc(-c2ccccc2)cc1NS(=O)(=O)c1cc(Cl)cc(Cl)c1` [I-244, 2-[[3-(3,5-dichlorobenzenesulfonamido)-[1,1-biphenyl]-4-yl]oxy]acetic Acid] and `N#Cc1cc(Cl)cc(S(=O)(=O)Nc2cc(-c3ccccc3)ccc2O)c1` [I-218, 3-chloro-5-cyano-N-[4-hydroxy-[1,1-biphenyl]-3-yl]benzene-1-sulfonamide] fall in the same range of IC50: 0.5 to 20 µM for the first, 0.5 to 20 µM for the second.

Compared with `Cc1nn(C)c(Cl)c1S(=O)(=O)Nc1cc(-c2ccccc2)ccc1C(=O)O` [I-345, 3-((5-chloro-1,3-dimethyl-1H-pyrazole)-4-sulfonamido)-[1,1′-biphenyl]-4-carboxylic Acid], `COc1ccc(-c2ccccc2)cc1NS(=O)(=O)c1cc(C(N)=O)cc(Cl)c1OC` [I-432, 3-chloro-4-methoxy-5-(N-(4-methoxy-[1,1′-biphenyl]-3-yl)sulfamoyl)benzamide] is higher in IC50: 0.5 to 20 µM for the first, > 20 µM for the second.

`CC(C)(C)OC(=O)n1ccc2cccc(S(=O)(=O)Nc3cc(-c4ccccc4)ccc3F)c21` [I-382, tert-butyl 7-(N-(4-fluoro-[1,1′-biphenyl]-3-yl)sulfamoyl)-1H-indole-1-carboxylate] and `O=C(O)COc1ccccc1S(=O)(=O)Nc1cc(-c2ccccc2)ccc1F` [I-379, 2-(2-(N-(4-fluoro-[1,1′-biphenyl]-3-yl)sulfamoyl)phenoxy)acetic Acid] cannot be ordered by IC50: > 20 µM for the first, > 20 µM for the second.

Compared with `O=S(=O)(Nc1cc(-c2ccccc2)c(F)cc1F)c1cccc2ccccc12` [I-376, N-(4,6-difluoro-[1,1 biphenyl]-3-yl)naphthalene-1-sulfonamide], `O=S(=O)(Nc1cc(-c2ccccc2)c(F)cc1F)c1cc(Cl)cc(C(F)(F)F)c1` [I-204, 3-chloro-N-[4,6-difluoro-[1,1-biphenyl]-3-yl]-5-(trifluoromethyl)benzene-1-sulfonamide] is lower in IC50: > 20 µM for the first, 0.5 to 20 µM for the second.

`COc1ccc(-c2ccccc2)cc1N(Cc1ccccc1)S(=O)(=O)c1cn[nH]c1` [I-417, N-benzyl-N-(2-methoxy-5-phenylphenyl)-1H-pyrazole-4-sulfonamide] and `COc1ccc(-c2ccccc2)cc1NS(=O)(=O)c1ccc(O)c(Cl)c1` [I-416, 3-chloro-4-hydroxy-N-(2-methoxy-5-phenylphenyl)benzene-1-sulfonamide] cannot be ordered by IC50: > 20 µM for the first, > 20 µM for the second.

`O=C(O)c1cc(Cl)c(O)c(S(=O)(=O)Nc2ccccc2F)c1` [I-283, 3-chloro-5-[(2-fluorophenyl)sulfamoyl]-4-hydroxybenzoic acid] and `COC(=O)c1cc(Cl)c(OCC(=O)O)c(S(=O)(=O)Nc2cc(-c3ccccc3)ccc2F)c1` [I-114, 2-[2-chloro-6-([4-fluoro-[1,1-biphenyl]-3-yl]sulfamoyl)-4-(methoxycarbonyl)phenoxy]acetic Acid] fall in the same range of IC50: 0.5 to 20 µM for the first, 0.5 to 20 µM for the second.

`COc1ccc(N2CCCCC2)cc1NS(=O)(=O)c1cc(Cl)cc(Cl)c1O` [I-10, 3,5-dichloro-2-hydroxy-N-(2-methoxy-5-(piperidin-1-yl)phenyl)benzenesulfonamide] and `COc1ccc(NC(=O)C2CC2)cc1NS(=O)(=O)c1cc(Cl)cc(Cl)c1O` [I-8, N-(3-((3,5-dichloro-2-hydroxyphenyl)sulfonamido)-4-methoxyphenyl) cyclopropanecarboxamide] fall in the same range of IC50: 0.5 to 20 µM for the first, 0.5 to 20 µM for the second.

Compared with `COc1c(Cl)cc(C#N)cc1S(=O)(=O)Nc1cc(-c2ccccc2)ccc1F` [I-51, 3-chloro-5-cyano-N-(4-fluoro-[1,1′-biphenyl]-3-yl)-2-methoxybenzenesulfonamide], `CNC(=O)c1cc(Cl)c(OC)c(S(=O)(=O)Nc2cc(-c3ccccc3)ccc2OC)c1` [I-433, 3-chloro-4-methoxy-5-(N-(4-methoxy-[1,1′-biphenyl]-3-yl)sulfamoyl)-N-methylbenzamide] is higher in IC50: 0.5 to 20 µM for the first, > 20 µM for the second.

`O=C(c1cc(Cl)c(O)c(SCc2cc(-c3ccccc3)c(F)cc2F)c1)N1CCCC1` [I-205, (3-chloro-5-(((4,6-difluoro-[1,1′-biphenyl]-3-yl)methyl)thio)-4-hydroxyphenyl)(pyrrolidin-1-yl)methanone] and `O=C(Nc1cc(-c2ccccc2)c(F)cc1F)c1cc(C(=O)N2CCCC2)cc(Cl)c1O` [I-150, 3-chloro-N-(4,6-difluoro-[1,1′-biphenyl]-3-yl)-2-hydroxy-5-(pyrrolidine-1-carbonyl)benzamide] fall in the same range of IC50: 0.5 to 20 µM for the first, 0.5 to 20 µM for the second.

First: O=S(=O)(Nc1ccc(F)cc1F)c1cc(Cl)cc(-c2nn[nH]n2)c1 [I-373, 3-chloro-N-(2,4-difluorophenyl)-5-(2H-1,2,3,4-tetrazol-5-yl)benzene-1-sulfonamide]
Second: O=C(COc1c(Cl)cc(Cl)cc1S(=O)(=O)Nc1cc(-c2ccccc2)ccc1F)N1CCC1 [I-153, 2-(2-(azetidin-1-yl)-2-oxoethoxy)-3,5-dichloro-N-(4-fluoro-[1,1′-biphenyl]-3-yl)benzenesulfonamide]
The IC50 of the first is higher: > 20 µM for the first, 0.5 to 20 µM for the second. The second is the more potent here.

First: COC(=O)c1ccnc(NS(=O)(=O)c2cc(Cl)cc(Cl)c2O)c1 [I-525, methyl 2-((3,5-dichloro-2-hydroxyphenyl)sulfonamido)isonicotinate]
Second: O=S(=O)(NCC1(Cc2ccc(F)cc2)CC1)c1cc(Cl)cc(Cl)c1O [I-187]
The IC50 of the first is higher: > 20 µM for the first, 0.5 to 20 µM for the second. The second is the more potent here.

Compared with `CCC(=O)Oc1c(Cl)cc(C(=O)OC)cc1S(=O)(=O)Nc1cc(-c2ccccc2)ccc1F` [I-120, Methyl 3-chloro-5-([4-fluoro-[1,1-biphenyl]-3-yl]sulfamoyl)-4-(propanoyloxy)benzoate], `O=C(Nc1cc(C(=O)N2CCC2)cc(Cl)c1O)c1cc(-c2ccccc2)ccc1F` [I-216, N-(5-(azetidine-1-carbonyl)-3-chloro-2-hydroxyphenyl)-4-fluoro-[1,1′-biphenyl]-3-carboxamide] is higher in IC50: 0.05 to 0.5 µM for the first, 0.5 to 20 µM for the second. The first is the more potent here.

`Cc1c(-c2ccccc2)ccc(C(=O)O)c1NS(=O)(=O)c1cc(Cl)cc(C(F)(F)F)c1` [I-365, 3-((3-chloro-5-(trifluoromethyl)phenyl)sulfonamido)-2-methyl-[1,1′-biphenyl]-4-carboxylic Acid] gave an IC50 of 0.5 to 20 µM.
